Measured values reported in US7863033B2, “Lactobacillus living body activating Lactobacillus preparation and preventive or therapeutic agent for living body infection” (BHPH Company Limited, priority 2003, dated 2011).
Like-named read-outs stand apart in the source and are kept apart here. Each block holds one compound with its values, some of them ahead of it.

Assays:
[1] = tested on: bacteria in plaque; experiment: Live cell counts in plaque soaked in disinfectant (Test Example 4); format: cell-based; conditions: 60 minutes of immersion
[2] = tested on: mouse skin wound; experiment: Recovery of mouse skin wounds with bactericidal disinfectants (Test Example 5); format: in vivo
[3] = tested on: conjunctivitis patients; experiment: Treatment of acute infection patients (Example 15, Comparative Example 1); conditions: epidemic conjunctivitis; method A: Ofloxacin alone
[4] = tested on: acute cystitis patients; experiment: as above; conditions: method A: minocycline alone 1000 mg/day for 5 days
[5] = tested on: acute cystitis patients; conditions: method A: Cephalexin alone; cited from earlier work
[6] = tested on: acute bronchitis patients; conditions: method A: Cefaclor alone; cited from earlier work
[7] = tested on: acute colitis patients; experiment: Treatment of acute infection patients (Example 15, Comparative Example 1); conditions: method A: Cefaclor alone 1000 mg/day for 5 days
[8] = applied every morning and night

SMILES: CC(O)C(=O)O.CCOc1ccc2nc3cc(N)ccc3c(N)c2c1 [Acrinol]
survival of bacteria inside the plaque [1]: half of the cells surviving
Recovery: Complete recovery (coat regrown) [2, 8]: 40 days
Recovery: Skin close to original thickness [2, 8]: 15 days
Recovery: Thin skin overall ([2]; applied every morning and night to about 1 cm^2 peeled mouse skin): 5 days

Upset of intestinal flora [3]: −
SMILES: CC1COc2c(N3CCN(C)CC3)c(F)cc3c(=O)c(C(=O)O)cn1c23 (stereo not drawn) [Ofloxacin]

Upset of intestinal flora [4]: ++
SMILES: CN(C)c1ccc(O)c2c1C[C@H]1C[C@H]3[C@H](N(C)C)C(O)=C(C(N)=O)C(=O)[C@@]3(O)C(O)=C1C2=O [minocycline]

SMILES: CC1=C(C(=O)O)N2C(=O)[C@@H](NC(=O)[C@H](N)c3ccccc3)[C@H]2SC1 [Cephalexin]
Upset of intestinal flora [5]: ++

SMILES: N[C@@H](C(=O)N[C@@H]1C(=O)N2C(C(=O)O)=C(Cl)CS[C@H]12)c1ccccc1 [Cefaclor]
Upset of intestinal flora [6]: ++
Upset of intestinal flora [7]: ++
